Entries after “also recorded” stand apart in the source; their conditions may differ.
Legend:
[1] = system: N2a cells; assay: Cell viability (resazurin) in N2a cells; format: cell-based
Method: Figure 6 Cellular toxicity studies of compounds 16-8 and 16-19. N2a cells were subjected to increasing concentrations of compounds 16-8 and 16-19, resulting cell viability was analyzed for the next 48 h. (A) Time course of cell viability in the presence of various concentrations of 16-8. […] Representative result of 2 independent experiments.
N2a cells were cultured in 96 well plates for 24–48 h. Cell viability studies relied on metabolic capability monitored with the indicator dye resazurin. Its reduction to resorufin (indicated by color change dark blue to pink) was monitored over time. Changes in absorbance at λ = 570 nm were recorded using a microplate reader (Molecular Devices). […] Eight replicate cultures per experimental point were studied.

[2] = target: T1, TRPV2 (Mus musculus, UniProt Q9WTR1); assay: Ca++ imaging in N2a cells over-expressing TRPV2 (hypotonicity); conditions: 5 μM
T1 sequence (Q9WTR1 1-756): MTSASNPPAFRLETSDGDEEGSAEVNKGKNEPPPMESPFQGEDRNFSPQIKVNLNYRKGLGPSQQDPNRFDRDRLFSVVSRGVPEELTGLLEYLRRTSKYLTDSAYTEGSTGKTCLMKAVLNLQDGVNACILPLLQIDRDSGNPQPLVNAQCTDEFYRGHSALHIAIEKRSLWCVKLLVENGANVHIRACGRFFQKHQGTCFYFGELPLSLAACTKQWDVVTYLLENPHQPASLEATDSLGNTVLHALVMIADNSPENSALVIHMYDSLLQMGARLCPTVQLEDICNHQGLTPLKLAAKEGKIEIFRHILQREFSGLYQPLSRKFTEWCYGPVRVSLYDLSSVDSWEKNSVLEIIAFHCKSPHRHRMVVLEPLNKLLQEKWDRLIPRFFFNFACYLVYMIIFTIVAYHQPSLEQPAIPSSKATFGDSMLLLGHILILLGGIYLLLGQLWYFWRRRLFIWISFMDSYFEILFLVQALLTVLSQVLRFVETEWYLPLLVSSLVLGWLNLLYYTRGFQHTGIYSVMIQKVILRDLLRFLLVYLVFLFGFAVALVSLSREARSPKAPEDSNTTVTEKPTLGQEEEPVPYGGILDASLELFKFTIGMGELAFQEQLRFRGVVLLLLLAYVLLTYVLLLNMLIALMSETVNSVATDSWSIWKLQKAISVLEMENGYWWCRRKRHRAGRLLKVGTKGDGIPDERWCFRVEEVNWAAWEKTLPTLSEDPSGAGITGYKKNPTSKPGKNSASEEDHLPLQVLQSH
Method: (§1) (A) Specificity vs TRPV1-3. […] Mean±SEM is shown, ≥100 cells per condition. […] Plot generated from averaged peak ∆Ca^++ concentration of ≥75 cells per data-point.
(§2) N2a cells were used for directed expression of TRP ion channels as described previously[13]. […] All other channels were native channels from mouse, eGFP was co-transfected. […] Ca^++ imaging was performed as described previously[13][14][34].

[3] = target: T2, TRPV3 (Mus musculus, UniProt Q8K424); assay: Ca++ imaging in N2a cells over-expressing TRPV3 (camphor); conditions: 5 μM
T2 sequence (Q8K424 1-791): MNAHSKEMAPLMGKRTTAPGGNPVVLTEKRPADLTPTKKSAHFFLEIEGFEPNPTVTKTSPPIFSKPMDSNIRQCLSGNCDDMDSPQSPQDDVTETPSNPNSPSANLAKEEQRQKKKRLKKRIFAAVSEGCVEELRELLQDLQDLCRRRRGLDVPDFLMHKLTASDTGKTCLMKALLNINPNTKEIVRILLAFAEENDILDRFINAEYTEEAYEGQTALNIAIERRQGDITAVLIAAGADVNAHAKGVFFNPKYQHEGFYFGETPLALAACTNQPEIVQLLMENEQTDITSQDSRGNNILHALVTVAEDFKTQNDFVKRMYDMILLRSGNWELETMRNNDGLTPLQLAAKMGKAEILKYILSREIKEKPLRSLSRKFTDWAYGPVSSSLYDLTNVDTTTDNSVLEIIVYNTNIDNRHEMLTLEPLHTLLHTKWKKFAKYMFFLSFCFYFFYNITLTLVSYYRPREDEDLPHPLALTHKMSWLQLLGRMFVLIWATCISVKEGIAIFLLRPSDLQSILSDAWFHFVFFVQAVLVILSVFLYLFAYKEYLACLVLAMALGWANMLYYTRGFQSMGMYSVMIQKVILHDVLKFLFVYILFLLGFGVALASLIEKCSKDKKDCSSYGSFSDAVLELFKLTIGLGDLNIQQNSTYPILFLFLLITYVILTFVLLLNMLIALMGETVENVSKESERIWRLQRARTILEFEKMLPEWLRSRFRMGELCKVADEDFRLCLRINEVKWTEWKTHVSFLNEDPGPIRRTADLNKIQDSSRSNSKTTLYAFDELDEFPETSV
Method: as §1, §2

[4] = system: formalin-evoked trigeminal irritant pain; assay: Trigeminal formalin irritant pain model, WT mice; format: in vivo, mouse; conditions: 10 mg/kg i.p.; for pain behavior, delayed (late neural) phase: 15 min before 4% formalin, 15–45 min
Method: Figure 7 16-8 and 16-19 effectively attenuate formalin-evoked trigeminal irritant pain. (A) Time-course of nocifensive behavior in WT mice following whisker-pad injection of 4% formalin. The mice were pre-injected (i.p., 10 mg/kg; 15 min before formalin) with GSK205, 16-8 or 16-19. Note effective reduction of nocifensive behavior in the late “neural” phase by compounds 16-8, 16-19, not by GSK205. (B) Cumulative response binned into 3 phases: acute phase (0–5 min), interphase (5–15 min), and late “neural” phase (15–45 min). […] (C) As in (A), but also including Trpv4^−/− mice. Compounds were applied i.p. 15 min before formalin challenge, at 10 mg/kg except established TRPA1 blocker, A967079 (25 mg/kg). Previously-established attenuated nocifensive behavior in early and late phase in Trpv4^−/− mice was recapped, which was reduced further by TRPA1 blocker, A967079. (D) As in (B), plus inclusion of Trpv4^−/− mice. Robust effects of TRPA1-blocker, A967079, were mimicked equi-potently by 16-8 and 16-19 for early phase, and by 16-8 for late phase, partially by 16-19 for late phase. (A,C) show averaged behavioral metrics per time-point, bars in (B,D) represent mean ± SEM; for (D) ^*P < 0.05; ^#P < 0.005, one-way ANOVA; for all panels n = 5–8 mice/group. Implementation of this model was conducted as described previously. Video-taped nocifensive behavior was assessed by investigators blinded to genotype and treatment.

Row | SMILES | cellular toxicity vs inhibitory potency against TRPV4/TRPA1, factor [1] | inhibition of TRPV2 [2] | inhibition of TRPV3 [3] | pain behavior, delayed (late neural) phase [4] | cell viability ([1]; increasing concentrations, followed for 48 h) | diminishing of pain behavior, delayed phase [4]
1 | CCN(CCc1ccc(Nc2nc(-c3ccccc3)cs2)cc1)Cc1ccccc1 [16-19] | 50–100 | did not inhibit | did not inhibit | robust effect; also recorded: significant reduction |  | 
2 | CN(CCc1ccc(Nc2nc(-c3ccccc3)cs2)cc1)Cc1ccccc1 [16-8] | 50–100 | did not inhibit | did not inhibit | significant attenuation; also recorded: significant reduction | clear reduction at 40 and 80 μM | > 50%
